Among the data in ChEMBL document CHEMBL1201862, “PubChem BioAssay data set” (2004) are IC50, AC50 and CC50 values, retold here.

Test [1] deals with 72 kDa type IV collagenase (Homo sapiens, UniProt P08253). Put plainly: Dose Response validation of uHTS RPN11 inhibitor hits using a MMP-2 Fluorescence assay. The test is classed as functional.
The target of test [2] is 26S proteasome non-ATPase regulatory subunit 14 (Homo sapiens, UniProt O00487). Nature of the test: inhibition of proteasome subunit RPN11 – biochemical, fluorescence polarization, uHTS hits, confirmation (AID 602368). The test is classed as functional.
26S proteasome non-ATPase regulatory subunit 14, sequence (O00487 whole entry): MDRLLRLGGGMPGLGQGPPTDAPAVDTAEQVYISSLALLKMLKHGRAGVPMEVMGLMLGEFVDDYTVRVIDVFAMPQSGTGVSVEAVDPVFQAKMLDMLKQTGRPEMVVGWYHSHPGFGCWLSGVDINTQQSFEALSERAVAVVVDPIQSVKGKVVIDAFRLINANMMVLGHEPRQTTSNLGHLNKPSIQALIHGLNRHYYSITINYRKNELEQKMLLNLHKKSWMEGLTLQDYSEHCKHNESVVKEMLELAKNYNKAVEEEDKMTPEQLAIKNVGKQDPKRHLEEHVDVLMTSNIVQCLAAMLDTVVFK
The next test deals with Prothrombin (Bos taurus, UniProt P00735). Nature of the test: thrombin protease inhibitors – biochemical, fluorescence polarization, uHTS hits, dose response (AID 602369). It is filed as functional.
Test [3] concerns the target T1, Apoptotic protease-activating factor 1 (Homo sapiens, UniProt O14727).
T1 sequence (O14727 whole entry): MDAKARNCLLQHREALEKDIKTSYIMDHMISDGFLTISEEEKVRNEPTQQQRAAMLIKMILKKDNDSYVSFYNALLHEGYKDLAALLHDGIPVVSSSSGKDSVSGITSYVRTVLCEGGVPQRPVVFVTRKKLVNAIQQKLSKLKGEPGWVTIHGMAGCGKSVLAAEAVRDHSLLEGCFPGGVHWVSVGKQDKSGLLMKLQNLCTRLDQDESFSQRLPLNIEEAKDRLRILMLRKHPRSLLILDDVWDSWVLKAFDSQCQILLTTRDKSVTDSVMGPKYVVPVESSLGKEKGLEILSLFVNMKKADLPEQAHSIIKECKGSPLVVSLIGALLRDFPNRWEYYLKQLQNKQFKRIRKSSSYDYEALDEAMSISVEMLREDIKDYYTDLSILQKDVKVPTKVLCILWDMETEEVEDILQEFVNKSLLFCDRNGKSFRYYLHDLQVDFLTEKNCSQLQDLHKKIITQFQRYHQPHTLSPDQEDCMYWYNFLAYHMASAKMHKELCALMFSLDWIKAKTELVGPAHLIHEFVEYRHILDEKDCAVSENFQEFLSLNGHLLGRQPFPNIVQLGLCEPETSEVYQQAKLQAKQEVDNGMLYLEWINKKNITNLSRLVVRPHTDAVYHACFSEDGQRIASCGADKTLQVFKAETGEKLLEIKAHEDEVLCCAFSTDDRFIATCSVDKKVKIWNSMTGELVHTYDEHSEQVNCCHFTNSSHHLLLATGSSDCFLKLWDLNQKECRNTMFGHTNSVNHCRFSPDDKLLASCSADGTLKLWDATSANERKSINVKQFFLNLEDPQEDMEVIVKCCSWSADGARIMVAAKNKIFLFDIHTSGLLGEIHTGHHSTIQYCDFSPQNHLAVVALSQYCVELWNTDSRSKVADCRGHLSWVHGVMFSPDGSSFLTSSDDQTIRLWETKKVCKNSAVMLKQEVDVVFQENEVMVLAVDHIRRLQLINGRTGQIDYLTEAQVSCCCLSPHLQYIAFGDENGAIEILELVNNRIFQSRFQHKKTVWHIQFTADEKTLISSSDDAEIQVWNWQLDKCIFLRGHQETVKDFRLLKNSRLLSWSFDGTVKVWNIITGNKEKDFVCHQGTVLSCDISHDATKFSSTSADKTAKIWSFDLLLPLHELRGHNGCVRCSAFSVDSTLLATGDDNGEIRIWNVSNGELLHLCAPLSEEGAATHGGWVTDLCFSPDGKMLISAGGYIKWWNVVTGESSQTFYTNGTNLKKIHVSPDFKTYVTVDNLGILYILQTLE
The test is classed as functional.

A further test deals with INS1. Put plainly: INS-1E survival protection against cytokine death – cell-based, luminescence, retest, dose response (AID 449756).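 Further: cell death triggered by IL-1 beta plus TNF-alpha plus IFN-gamma mixture; protective hits raise ATP signal compared with cytokine alone wells.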 It is filed as functional. As to conditions: Rattus norvegicus.
Test [4] concerns the target T2, Tyrosyl-DNA phosphodiesterase 2 (Homo sapiens, UniProt O95551).
T2 sequence (O95551 whole entry): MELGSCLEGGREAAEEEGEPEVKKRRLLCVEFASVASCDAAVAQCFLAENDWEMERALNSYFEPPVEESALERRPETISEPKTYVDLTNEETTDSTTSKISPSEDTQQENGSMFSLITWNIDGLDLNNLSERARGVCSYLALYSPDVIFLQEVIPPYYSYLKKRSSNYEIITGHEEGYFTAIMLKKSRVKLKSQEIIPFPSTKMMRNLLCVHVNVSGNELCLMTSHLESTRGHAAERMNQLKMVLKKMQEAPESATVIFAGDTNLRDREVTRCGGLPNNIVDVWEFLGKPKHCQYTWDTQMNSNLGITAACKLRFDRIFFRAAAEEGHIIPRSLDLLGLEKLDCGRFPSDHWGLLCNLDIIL
Put plainly: potency against TDP2 phosphodiesterase activity – biochemical, epi absorbance, IC50, dose response (AID 743297).

The target in test [5] is T3, Sentrin-specific protease 6 (Homo sapiens, UniProt Q9GZR1).
T3 sequence (Q9GZR1 whole entry): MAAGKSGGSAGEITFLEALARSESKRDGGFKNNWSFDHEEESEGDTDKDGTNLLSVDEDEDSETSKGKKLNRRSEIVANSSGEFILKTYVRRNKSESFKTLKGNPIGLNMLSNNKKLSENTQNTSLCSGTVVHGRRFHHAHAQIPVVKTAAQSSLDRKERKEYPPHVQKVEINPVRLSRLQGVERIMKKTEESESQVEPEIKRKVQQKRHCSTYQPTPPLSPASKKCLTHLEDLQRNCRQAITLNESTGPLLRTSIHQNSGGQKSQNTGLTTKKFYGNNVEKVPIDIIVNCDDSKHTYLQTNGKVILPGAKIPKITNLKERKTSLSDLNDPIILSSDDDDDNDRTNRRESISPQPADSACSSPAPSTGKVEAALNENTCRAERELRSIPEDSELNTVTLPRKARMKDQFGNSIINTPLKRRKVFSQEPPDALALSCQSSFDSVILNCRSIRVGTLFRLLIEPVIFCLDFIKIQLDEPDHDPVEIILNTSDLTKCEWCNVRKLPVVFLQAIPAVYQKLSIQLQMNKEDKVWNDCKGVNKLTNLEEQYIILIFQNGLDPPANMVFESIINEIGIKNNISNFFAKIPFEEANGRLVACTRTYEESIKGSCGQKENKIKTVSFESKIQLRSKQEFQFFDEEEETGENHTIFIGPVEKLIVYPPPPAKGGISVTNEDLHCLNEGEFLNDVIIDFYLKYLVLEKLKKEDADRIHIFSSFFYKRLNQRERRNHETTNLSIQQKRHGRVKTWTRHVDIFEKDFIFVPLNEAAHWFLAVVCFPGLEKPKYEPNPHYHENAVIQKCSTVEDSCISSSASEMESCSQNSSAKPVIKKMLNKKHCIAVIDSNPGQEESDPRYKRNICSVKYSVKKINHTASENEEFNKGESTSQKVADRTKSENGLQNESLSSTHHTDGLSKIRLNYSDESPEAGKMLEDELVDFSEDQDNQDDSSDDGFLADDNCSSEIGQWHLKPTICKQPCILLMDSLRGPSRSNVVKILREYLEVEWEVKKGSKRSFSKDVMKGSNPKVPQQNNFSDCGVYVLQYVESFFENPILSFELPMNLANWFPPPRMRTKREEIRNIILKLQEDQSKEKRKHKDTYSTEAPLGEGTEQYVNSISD
It is filed as functional.

Test [6] addresses T4, Sentrin-specific protease 8 (Homo sapiens, UniProt Q96LD8).
T4 sequence (Q96LD8 whole entry): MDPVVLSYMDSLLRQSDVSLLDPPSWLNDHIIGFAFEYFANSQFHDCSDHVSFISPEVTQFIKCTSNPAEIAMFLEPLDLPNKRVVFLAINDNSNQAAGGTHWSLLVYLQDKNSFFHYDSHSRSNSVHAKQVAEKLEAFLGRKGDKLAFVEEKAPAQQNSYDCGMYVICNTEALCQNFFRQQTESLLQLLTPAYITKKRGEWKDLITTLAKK
The test is classed as functional.

Test [7] concerns the target T5, Caspase-3 (Homo sapiens, UniProt P42574).
T5 sequence (P42574 whole entry): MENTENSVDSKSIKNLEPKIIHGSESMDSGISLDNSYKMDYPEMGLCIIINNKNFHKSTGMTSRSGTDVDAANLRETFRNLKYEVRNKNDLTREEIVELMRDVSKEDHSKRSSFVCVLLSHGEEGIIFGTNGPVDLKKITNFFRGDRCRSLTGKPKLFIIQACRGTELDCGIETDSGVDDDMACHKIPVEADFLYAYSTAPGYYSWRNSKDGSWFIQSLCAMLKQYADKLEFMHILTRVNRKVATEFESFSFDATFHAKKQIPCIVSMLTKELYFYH
The test is classed as functional.

Test [8] deals with T6, Sentrin-specific protease 7 (Homo sapiens, UniProt Q9BQF6).
T6 sequence (Q9BQF6 whole entry): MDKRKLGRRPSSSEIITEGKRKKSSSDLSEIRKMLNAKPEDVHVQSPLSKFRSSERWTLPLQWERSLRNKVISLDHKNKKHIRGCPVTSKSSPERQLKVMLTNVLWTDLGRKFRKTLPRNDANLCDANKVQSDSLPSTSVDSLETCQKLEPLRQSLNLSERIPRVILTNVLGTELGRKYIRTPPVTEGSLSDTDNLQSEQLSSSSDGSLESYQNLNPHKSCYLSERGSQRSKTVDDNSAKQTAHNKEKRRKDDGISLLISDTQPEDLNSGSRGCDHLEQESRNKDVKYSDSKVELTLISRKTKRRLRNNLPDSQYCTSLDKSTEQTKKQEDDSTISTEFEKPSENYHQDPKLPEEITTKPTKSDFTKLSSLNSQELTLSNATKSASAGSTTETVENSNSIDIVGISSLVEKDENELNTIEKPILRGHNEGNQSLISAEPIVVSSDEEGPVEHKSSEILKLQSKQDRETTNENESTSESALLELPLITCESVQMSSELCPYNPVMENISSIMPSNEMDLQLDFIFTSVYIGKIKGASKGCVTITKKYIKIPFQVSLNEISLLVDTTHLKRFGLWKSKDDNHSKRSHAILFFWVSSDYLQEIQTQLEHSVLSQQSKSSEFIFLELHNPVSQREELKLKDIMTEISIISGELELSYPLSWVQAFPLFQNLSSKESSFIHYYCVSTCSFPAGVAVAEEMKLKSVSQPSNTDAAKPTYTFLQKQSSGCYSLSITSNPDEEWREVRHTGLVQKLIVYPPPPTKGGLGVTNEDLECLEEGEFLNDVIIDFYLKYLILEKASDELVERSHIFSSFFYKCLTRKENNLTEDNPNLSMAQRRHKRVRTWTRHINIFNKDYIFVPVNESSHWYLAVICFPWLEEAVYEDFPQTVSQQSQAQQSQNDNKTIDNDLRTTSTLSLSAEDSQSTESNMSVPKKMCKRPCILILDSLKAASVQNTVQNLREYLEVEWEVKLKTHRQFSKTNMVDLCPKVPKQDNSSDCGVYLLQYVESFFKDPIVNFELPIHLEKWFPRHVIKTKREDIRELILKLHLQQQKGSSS
The test is classed as functional.

For test [9], the target named is T3, Sentrin-specific protease 6. Put plainly: SAR Analysis of small molecule inhibitors of Sentrin-specific protease 6 (SENP6) using a Luminescent assay. [Related pubchem assays (depositor defined):AID2582, AID2599]. It is filed as functional.
The target of test [10] is T5, Caspase-3. Nature of the test: SAR Analysis of small molecule inhibitors of Sentrin-specific proteases (SENPs) using a Caspase-3 Selectivity assay. [Related pubchem assays (depositor defined):AID2540, AID2599, AID434973, AID489001]. It is filed as functional.
Test [11] concerns the target T4, Sentrin-specific protease 8. Put plainly: inhibition of human SENP8 cleavage activity – biochemical, luminescence, SAR follow-up (AID 504501). It is filed as functional.
In test [12] the target is T6, Sentrin-specific protease 7. Put plainly: inhibition of human SENP7 cleavage activity – biochemical, luminescence, SAR follow-up (AID 504497). It is filed as functional.
Test [13] concerns the target Induced myeloid leukemia cell differentiation protein Mcl-1 (Homo sapiens, UniProt Q07820). The test is classed as functional.
In another test the test system is Vero. Put plainly: viability of Vero cells under compound – cytotoxicity control for flavivirus capping enzyme inhibitors (AID 588742). It is filed as functional. The note with it: Chlorocebus sabaeus.
Test [14] concerns the target Glucose-6-phosphate 1-dehydrogenase (Homo sapiens, UniProt P11413). Put plainly: inhibition of Homo sapiens G6PD, dose series – biochemical, fluorescence, selectivity assay for P. falciparum G6PD inhibitor project, dose response (AID 504792). It is filed as functional.
The target of another test is Genome polyprotein (dengue virus type 2, UniProt P29990). Put plainly: flavivirus cap methylation enzyme inhibition – biochemical, confirmation dose response, primary screen (AID 588689). It is filed as functional.
Genome polyprotein, sequence (P29990 2492-3391 limits assumed): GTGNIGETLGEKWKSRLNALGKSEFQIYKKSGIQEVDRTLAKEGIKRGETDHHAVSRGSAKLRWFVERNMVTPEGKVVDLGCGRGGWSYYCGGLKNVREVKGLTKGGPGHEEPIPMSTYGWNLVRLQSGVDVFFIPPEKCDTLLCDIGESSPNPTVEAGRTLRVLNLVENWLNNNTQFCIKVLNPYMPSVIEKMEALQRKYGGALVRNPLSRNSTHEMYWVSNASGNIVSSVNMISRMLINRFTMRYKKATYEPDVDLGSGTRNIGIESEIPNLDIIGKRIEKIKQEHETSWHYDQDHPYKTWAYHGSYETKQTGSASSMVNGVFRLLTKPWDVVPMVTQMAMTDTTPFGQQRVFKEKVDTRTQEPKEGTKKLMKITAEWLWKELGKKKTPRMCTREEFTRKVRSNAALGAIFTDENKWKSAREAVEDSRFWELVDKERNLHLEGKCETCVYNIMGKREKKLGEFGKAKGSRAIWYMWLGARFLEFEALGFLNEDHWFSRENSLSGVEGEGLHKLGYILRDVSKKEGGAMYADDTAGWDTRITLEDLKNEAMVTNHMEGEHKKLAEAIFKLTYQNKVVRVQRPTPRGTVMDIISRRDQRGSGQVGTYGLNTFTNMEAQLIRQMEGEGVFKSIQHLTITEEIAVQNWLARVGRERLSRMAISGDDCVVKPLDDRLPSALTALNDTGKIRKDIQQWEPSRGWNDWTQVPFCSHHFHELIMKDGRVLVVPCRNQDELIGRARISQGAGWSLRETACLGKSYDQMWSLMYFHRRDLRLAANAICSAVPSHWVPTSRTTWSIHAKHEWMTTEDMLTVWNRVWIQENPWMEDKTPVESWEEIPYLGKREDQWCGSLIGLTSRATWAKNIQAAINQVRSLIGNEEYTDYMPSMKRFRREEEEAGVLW

Calls of active or inactive are those of the source. For most assays here, no stated cut-off is given here; in the data, actives have a measured IC50 and inactives only a lower limit.

Induced myeloid leukemia cell differentiation protein Mcl-1, sequence (Q07820 whole entry): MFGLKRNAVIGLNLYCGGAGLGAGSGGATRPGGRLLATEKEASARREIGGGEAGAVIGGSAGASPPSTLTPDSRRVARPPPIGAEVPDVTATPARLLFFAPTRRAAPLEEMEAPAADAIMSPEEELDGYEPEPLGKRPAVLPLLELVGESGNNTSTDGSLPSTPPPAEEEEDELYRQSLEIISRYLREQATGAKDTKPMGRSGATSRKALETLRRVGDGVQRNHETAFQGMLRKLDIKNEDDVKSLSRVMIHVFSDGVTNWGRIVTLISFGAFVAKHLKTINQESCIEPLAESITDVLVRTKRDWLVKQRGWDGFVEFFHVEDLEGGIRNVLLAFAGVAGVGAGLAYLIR
72 kDa type IV collagenase, sequence (P08253 whole entry): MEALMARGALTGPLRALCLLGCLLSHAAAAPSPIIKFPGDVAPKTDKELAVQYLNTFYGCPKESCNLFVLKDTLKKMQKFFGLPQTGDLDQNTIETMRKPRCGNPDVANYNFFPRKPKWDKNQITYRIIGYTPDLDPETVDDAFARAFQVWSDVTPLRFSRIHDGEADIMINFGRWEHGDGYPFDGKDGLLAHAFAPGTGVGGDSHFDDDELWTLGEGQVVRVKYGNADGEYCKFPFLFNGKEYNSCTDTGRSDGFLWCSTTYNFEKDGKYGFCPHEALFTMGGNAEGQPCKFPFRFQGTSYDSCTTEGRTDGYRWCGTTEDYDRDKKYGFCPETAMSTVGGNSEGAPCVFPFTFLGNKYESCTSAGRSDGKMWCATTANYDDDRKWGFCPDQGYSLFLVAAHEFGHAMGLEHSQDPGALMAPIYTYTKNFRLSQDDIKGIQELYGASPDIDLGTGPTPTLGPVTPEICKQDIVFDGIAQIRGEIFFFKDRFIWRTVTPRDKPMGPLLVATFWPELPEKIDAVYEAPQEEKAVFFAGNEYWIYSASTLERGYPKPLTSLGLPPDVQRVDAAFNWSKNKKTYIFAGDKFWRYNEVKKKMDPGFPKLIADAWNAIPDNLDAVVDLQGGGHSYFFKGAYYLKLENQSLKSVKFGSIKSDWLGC
Glucose-6-phosphate 1-dehydrogenase, sequence (P11413 whole entry): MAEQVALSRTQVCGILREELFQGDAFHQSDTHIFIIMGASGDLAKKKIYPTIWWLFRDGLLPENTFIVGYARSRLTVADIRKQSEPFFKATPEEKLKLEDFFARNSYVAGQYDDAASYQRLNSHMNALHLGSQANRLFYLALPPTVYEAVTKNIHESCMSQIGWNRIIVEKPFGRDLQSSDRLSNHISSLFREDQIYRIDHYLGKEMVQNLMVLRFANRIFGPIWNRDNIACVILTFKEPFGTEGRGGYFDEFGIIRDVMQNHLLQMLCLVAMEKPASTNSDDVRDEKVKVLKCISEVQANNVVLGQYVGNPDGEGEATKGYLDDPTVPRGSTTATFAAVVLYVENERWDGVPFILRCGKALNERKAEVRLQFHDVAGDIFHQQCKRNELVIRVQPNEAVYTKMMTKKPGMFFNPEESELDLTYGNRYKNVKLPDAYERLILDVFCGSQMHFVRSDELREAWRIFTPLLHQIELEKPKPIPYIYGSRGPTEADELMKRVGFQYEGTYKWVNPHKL

`CC(/C=C1\SC(=S)N(CCC(=O)Nc2cccc(C(=O)O)c2)C1=O)=C\c1ccccc1`: the half-inhibitory concentration (IC50) is 64.9 µM (active) in [1], 47.4 µM (active) in [2] and 73.5 µM (active) on Prothrombin.
Consider `Nc1ccc2nn(-c3cccc4ccccc34)nc2c1`, for which the figures for the IC50 in [3] and in test [4] were 50 µM (active) and > 128 µM (inactive), respectively. In addition, in the test on INS1, the AC50 was 12.6 µM (active).
Regarding `O=C(Nc1nc2ccccc2s1)c1ccc(Cl)s1`, the IC50 in test [5] is > 100 µM (inactive); in test [6], 1.56 µM (active); on Caspase-3 [7] it was 10.5 µM (active); in [8] it was 2.16 µM (active); in test [9], 2.83 µM (active); at Caspase-3 [10], 3.28 µM (active). Further, the results for the IC50 in test [11] and in [12] were 2.55 µM (active) and 1.35 µM (active), respectively.
As to `COc1cc(OC)cc(C(=O)Nc2ccc3ccccc3c2)c1`, the IC50 was 7 µM (active) in test [9], 8.7 µM (active) at Caspase-3 [10], 7.8 µM (active) in test [11] and 2.86 µM (active) in test [12].
On the same counts, the results for `COc1cc(OC)cc(-c2noc(/C=C/c3ccccc3)n2)c1` are > 99 µM (inactive), 59 µM (active), > 99 µM (inactive) and 21.4 µM (active).
`Cc1cc(C)c(S(=O)(=O)/N=C2/C=C(SCC(=O)O)C(=O)c3ccccc32)cc1C`: the IC50 is 7.55 µM (active) in [13], 12.6 µM (active) in [3], 30.2 µM (inactive) in [14] and > 100 µM (active) at Genome polyprotein. Moreover, the CC50 in the test with Vero was 37.5 µM (active).
